Experimental data as given in the supplement of paper PMC3974653.
Structures can show the parent of a compound that is named as a salt.

Test system: MTT (mouse pheochromocytoma)
Experiment: IC50 of cell viability (ATP content)
Settings: (24 or 48 h)
How it was run: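 Library compounds in DMSO (23 nl by pintool, 8 concentrations, final 0.5 nM to 46 µM) were applied for 24 or 48 hrs to MTT mouse pheochromocytoma cells that had been cultured overnight at 37°C, 5% CO2 in white 1536-well plates. Cell viability was measured by CellTiter-Glo ATP luminescence, read after 15 minutes, with positive-control wells set at 100% and DMSO wells at 0%. A four-parameter logistic fit of the normalised signals yielded the IC50.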

SMILES | IC50 of cell viability [µM]
CC1CNC(=O)CCC2(C)C(CC(N)=O)C3[N+]/4=C2/C(=C\5C(CCC(N)=O)C(C)(C)C\6=[N+]5[Co-3]47(CC8OC(C(O)C8O)[N]9C=NC%10=C(N)N=CN=C9%10)(N%11/C(=C(C)\C%12=[N+]7\C(=C6)C(CCC(N)=O)C%12(C)CC(N)=O)C(CCC(N)=O)C(C)(CC(N)=O)C3%11C)[N+]%13=C[N](C%14O[C@H](CO)[C@@H](O[P]([O-])(=O)O1)C%14O)C%15=C%13C=C(C)C(=C%15)C)C (stereo partly drawn) [COENZYME B12] | > 46
CCCCCCCCCCCCCCCC(=O)OCC(COP(=O)(O)OCC[N+](C)(C)C)OC(=O)CCCCCCCCCCCCCCC (stereo not drawn) [COLFOSCERIL PALMITATE] | > 46
CCC(C)C1NC(=O)C(CCNCS(=O)(=O)[O-])NC(=O)C(NC(=O)C(CCNCS(=O)(=O)[O-])NC(=O)C(NC(=O)C(CCNCS(=O)(=O)[O-])NC(=O)CCCCC(C)C)C(C)O)CCNC(=O)C(C(C)O)NC(=O)C(CCNCS(=O)(=O)[O-])NC(=O)C(CCNCS(=O)(=O)[O-])NC(=O)C(C(C)CC)NC1=O.[Na+].[Na+].[Na+].[Na+].[Na+] (stereo not drawn) [COLISTIMETHATE SODIUM] | > 46
CCC(C)C(=O)OC1CC/C=C2/C=C\C(C)C(CCC3CC(O)CC(=O)O3)[C@H]12 (stereo partly drawn) [COMPACTIN] | > 46
CC1C2CCC3C4C\C=C/5CC(CC[C@@]5(C)C4CC[C@]23CN1C)N(C)C (stereo partly drawn) [CONESSINE] | > 46
CCCC1CCCCN1 (stereo not drawn) [CONIINE] | > 46
C[C@]\12CCC(=O)\C=C1CCC3C4CC[C@](O)(C(=O)CO)[C@]4(C)CC(=O)C23 (stereo partly drawn) [CORTISONE] | > 46
CCO[P](=S)(OCC)OC1=CC=C2\C(=C(Cl)/C(=O)OC2=C1)C [COUMOPHOS] | > 46
CC1(C)CCC(NC(=O)[C@@H](N)CCC(=O)O)CC1 [CR 2249] | > 46
Cc1cc(C)c(NC(=O)C[C@H](CC(=O)[O-])c2cccc3ccccc23)c(C(=O)N2CCC3(CCCC3)CC2)c1.[Na+] [CR 2945] | > 46
CN1CC(=O)NC1=N [CREATININE] | > 46
CC(=O)Oc1cccc(C)c1 [CRESYL ACETATE, M-] | > 46
CC(=O)Oc1ccc(C)cc1 [CRESYL ACETATE] | > 46
CC1CC(OC(=O)C(O)c2ccccc2)CC(C)(C)C1 (stereo not drawn) [CYCLANDELATE] | > 46
CC(=O)OC1=CC=C(C=C1)C(=C2/CCCCC2)\C3=CC=C(OC(C)=O)C=C3 [CYCLOFENIL] | > 46
N[S+]([O-])(=O)C1=C(Cl)C=C2NC(N[S+]([O-])(=O)C2=C1)C3CC\4CC3\C=C4 (stereo not drawn) [CYCLOTHIAZIDE] | > 46
CN1CCC(CC1)=C2C3=C(C=CC=C3)\C=C/C4=C2C=CC=C4 [CYPROHEPTADINE] | > 46
O=C(Nc1ccc(Cl)c(Cl)c1)C1CC1 [CYPROMID] | > 46
CC(=O)[C@]1(O)CCC2C3/C=C(Cl)\C4=C\C(=O)C5CC5[C@@]4(C)C3CC[C@@]12C (stereo partly drawn) [CYPROTERONE] | > 46
Nc1nc(N)nc(NC2CC2)n1 [CYROMAZINUM] | > 46
NC(CS)C(=O)O (stereo not drawn) [CYSTEINE HYDROCHLORIDE] | > 46
NC(CSSCC(N)C(=O)O)C(=O)O (stereo not drawn) [CYSTINE] | > 46
CNC(=O)C(N)CSC(C)C1=C(C)C2=Cc3c(C(C)SCC(N)C(=O)NC)c(C)c4[n]3[Fe]35[n]6c(c(C)c(CCC(=O)O)c6=CC6=[N+]3C(=C4)C(C)=C6CCC(=O)O)=CC1=[N+]25 (stereo not drawn) [CYTOCHROME C] | > 46

SMILES | IC50 of cell viability [µM]
[O]=[Cd] [Cadmium oxide] | > 46
CCOC(=O)NNc1ccc(N(CC)CC(C)O)nn1 (stereo not drawn) [Cadralazine] | > 46
Cn1c(=O)c2c(ncn2C)n(C)c1=O [Caffeine, citrated] | > 46
CC(=O)CCC(=O)[O-] [Calcium Levulinate] | > 46
CC1(C)[C@@H]2CC[C@@]1(C)C(=O)C2 [Camphor] | > 46
C=CC(=O)Nc1cc2c(Nc3ccc(F)c(Cl)c3)ncnc2cc1OCCCN1CCOCC1 [Canertinib] | > 46
CCCCCc1cc(O)c2c(c1)OC(C)(C)c1ccc(C)cc1-2 [Cannabinol] | > 46
[K+].C[C@@]12CCC(=O)\C=C1\C=C/[C@@H]3[C@@H]2CC[C@]4(C)[C@@H]3CC[C@]4(O)CCC([O-])=O [Canrenoic acid potassium salt] | > 46
CCCCCOC(=O)Nc1nc(=O)n(C2O[C@H](C)[C@@H](O)[C@@H]2O)cc1F (stereo partly drawn) [Capecitabine] | > 46
CC1(C)S[C@@H]2[C@H](NC(=O)CC3=CC=CC=C3)C(=O)[N@@]2[C@@H]1C(O)=O [Capicillin] | > 46
COc1cc(CNC(=O)CCCC/C=C/C(C)C)ccc1O [Capsaicin] | > 46
NC(=O)N1C2=C(C=CC=C2)\C=C/C3=C1C=CC=C3 [Carbamazepine] | > 46
CNC(=O)Oc1cccc2ccccc12 [Carbaryl] | > 46
CN1CC(O)C2=C/C(=N/NC(N)=O)C(=O)C=C21 (stereo not drawn) [Carbazochrome] | > 46
CC1(C)S[C@@H]2[C@H](NC(=O)C(C(=O)Oc3ccc4c(c3)CCC4)c3ccccc3)C(=O)N2[C@H]1C(=O)O (stereo partly drawn) [Carbenicillin indanyl] | > 46
[Na+].[Na+].CC1(C)[C@H](CC[C@@]2(C)[C@H]1CC[C@@]3(C)[C@H]2C(=O)\C=C4\[C@H]5C[C@@](C)(CC[C@]5(C)CC[C@]34C)C([O-])=O)OC(=O)CCC([O-])=O [Carbenoxolone disodium salt] | > 46
CCOC(=O)N1\C=C/N(C)C1=S [Carbimazole] | > 46
CN(C)CCOC(c1ccc(Cl)cc1)c1ccccn1 (stereo not drawn) [Carbinoxamine maleate] | > 46
CCOC(=O)NC(O)C(Cl)(Cl)Cl (stereo not drawn) [Carbocloral] | > 46
S=C=S [Carbon disulfide] | > 46
ClC(Cl)(Cl)Cl [Carbon tetrachloride] | > 46
CCCCNC(=O)N[S+](=O)([O-])c1ccc(N)cc1 [Carbutamide] | > 46
CCCC(C)(COC(N)=O)COC(=O)NC(C)C (stereo not drawn) [Carisoprodol] | > 46

SMILES | IC50 of cell viability [µM]
O=NN(CCCl)C(=O)NCCCl [Carmustine] | > 46
CCN(CC)CCN1C(=O)\C(=N/C2=CC=CC=C12)CC3=CC=C(OC)C=C3 [Caroverine hydrochloride] | > 46
O=c1[nH]c(=O)c2ccccc2o1 [Carsalam] | > 46
CC(C)(C)NC[C@H](O)COc1cccc2c1CCC(=O)N2 [Carteolol hydrochloride] | > 46
N[C@@H](C(=O)N[C@H]1[C@H]2SC\C(=C(/N2C1=O)C(O)=O)Cl)C3=CC=CC=C3 [Cefaclorum] | > 46
C\C1=C(\[N@]2[C@@H](SC1)[C@H](NC(=O)[C@@H](N)C3=CC=C(O)C=C3)C2=O)C(O)=O [Cefadroxil] | > 46
CC1=C(C(=O)O)N2C(=O)[C@@H](NC(=O)[C@H](N)c3ccccc3)[C@H]2SC1 [Cefalexina] | > 46
NC(=O)C1=CC=[N+](C\C2=C(\[N@]3[C@@H](SC2)[C@H](NC(=O)CC4=CC=CS4)C3=O)C([O-])=O)C=C1 [Cefalonium] | > 46
CC(=O)OCC1=C(C(=O)[O-])N2C(=O)C(NC(=O)Cc3ccccc3)C2SC1 (stereo not drawn) [Cefaloram] | > 46
CC(=O)OCC1=C(C(=O)O)N2C(=O)[C@@H](NC(=O)Cc3cccs3)[C@H]2SC1 [Cefalotina] | > 46
Cn1nnnc1SCC1=C(C(=O)O)N2C(=O)[C@@H](NC(=O)[C@H](OC=O)c3ccccc3)[C@H]2SC1 [Cefamandole nafate] | > 46
[Na+].C[N]1N=NN=C1SC\C2=C(\[N@]3[C@@H](SC2)[C@H](NC(=O)[C@@H](O)C4=CC=CC=C4)C3=O)C([O-])=O [Cefamandole sodium salt] | > 46
Cc1nnc(SCC2=C(C(=O)O)N3C(=O)[C@@H](NC(=O)Cn4cnnn4)[C@H]3SC2)s1 [Cefazolin] | > 46
CC/C=C(/C(=O)N[C@@H]1C(=O)N2C(C(=O)OCOC(=O)C(C)(C)C)=C(COC(N)=O)CS[C@H]12)c1csc(N)n1 [Cefcapene pivoxil HCl] | > 46
CC/C=C(\C(=O)N[C@H]1C(=O)N2C(C(=O)OCOC(=O)C(C)(C)C)=C(COC(N)=O)CS[C@H]12)c1csc(N)n1 [Cefcapene pivoxil hydrochloride] | > 46
C=CC1=C(C(=O)O)N2C(=O)[C@@H](NC(=O)C(N=O)c3csc(N)n3)[C@H]2SC1 (stereo partly drawn) [Cefdinir] | > 46
CO/N=C(\C(=O)N[C@@H]1C(=O)N2C(C(=O)[O-])=C(C[N+]3(C)CCCC3)CS[C@@H]12)c1csc(N)n1.Cl.O [Cefepime hydrochloride] | > 46
C=CC1=C(C(=O)O)N2C(=O)[C@@H](NC(=O)/C(=N\OCC(=O)O)c3csc(N)n3)[C@@H]2SC1 [Cefixime] | > 46
[Na+].CO[C@@]1(NC(=O)CSCC#N)[C@@H]2SC\C(=C(/N2C1=O)C([O-])=O)CSC3=NN=N[N]3C [Cefmetazole sodium salt] | > 46
NCC1=C(CC(=O)N[C@H]2[C@@H]3SC\C(=C(/N3C2=O)C(O)=O)CSC4=NN=N[N]4CC(O)=O)C=CC=C1 [Ceforanide] | > 46
CO/N=C(\C(=O)N[C@@H]1C(=O)N2C(C(=O)[O-])=C(COC(C)=O)CS[C@@H]12)c1csc(N)n1.[Na+] [Cefotaxime sodium salt] | > 46
CO[C@@]1(NC(=O)[C@@H]2S\C(S2)=C(\C(N)=O)C(O)=O)[C@@H]3SC\C(=C(/N3C1=O)C(O)=O)CSC4=NN=N[N]4C (stereo partly drawn) [Cefotetan] | > 46
